# Test results as given in ChEMBL document CHEMBL5291721, “A preclinical secondary pharmacology resource illuminates target-adverse drug reaction associations of marketed drugs” (Nat Commun, 2023).
# Legend:
# D(1A) dopamine receptor = D(1A) dopamine receptor (Homo sapiens, UniProt P21728); format: functional, cell-based
# [1] = biological target: T1, Muscarinic acetylcholine receptor M1 (Homo sapiens, UniProt P11229); format: functional, cell-based
# T1 sequence (P11229 whole entry): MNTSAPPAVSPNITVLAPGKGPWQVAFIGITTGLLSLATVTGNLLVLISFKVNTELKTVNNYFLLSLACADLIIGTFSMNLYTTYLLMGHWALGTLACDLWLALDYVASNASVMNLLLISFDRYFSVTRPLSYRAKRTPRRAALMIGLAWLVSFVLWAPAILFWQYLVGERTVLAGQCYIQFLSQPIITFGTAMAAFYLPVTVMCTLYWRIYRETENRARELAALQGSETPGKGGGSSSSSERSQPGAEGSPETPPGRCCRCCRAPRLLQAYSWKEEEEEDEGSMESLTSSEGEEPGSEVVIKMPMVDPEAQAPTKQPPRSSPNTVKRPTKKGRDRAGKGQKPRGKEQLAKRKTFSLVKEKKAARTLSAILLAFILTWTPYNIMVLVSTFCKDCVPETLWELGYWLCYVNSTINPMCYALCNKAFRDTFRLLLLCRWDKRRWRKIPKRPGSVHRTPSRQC
# Histamine H1 receptor = Histamine H1 receptor (Homo sapiens, UniProt P35367); format: functional, cell-based
# Histamine H1 receptor, sequence (P35367 whole entry): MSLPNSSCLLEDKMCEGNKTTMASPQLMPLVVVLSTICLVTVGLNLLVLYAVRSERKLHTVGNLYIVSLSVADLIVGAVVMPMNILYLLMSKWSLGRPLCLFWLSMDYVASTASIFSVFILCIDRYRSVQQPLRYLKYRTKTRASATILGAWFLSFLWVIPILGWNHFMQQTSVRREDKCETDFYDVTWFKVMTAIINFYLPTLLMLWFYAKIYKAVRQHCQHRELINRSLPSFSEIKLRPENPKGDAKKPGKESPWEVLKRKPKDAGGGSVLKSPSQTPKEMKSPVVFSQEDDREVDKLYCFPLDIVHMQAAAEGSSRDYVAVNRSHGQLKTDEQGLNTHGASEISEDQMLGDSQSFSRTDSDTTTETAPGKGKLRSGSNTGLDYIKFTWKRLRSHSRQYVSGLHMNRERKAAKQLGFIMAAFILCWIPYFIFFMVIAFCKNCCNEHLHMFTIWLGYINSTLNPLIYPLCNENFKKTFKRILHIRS
# Androgen receptor [2] = biological target: T2, Androgen receptor (Rattus norvegicus, UniProt P15207)
# T2 sequence (P15207 whole entry): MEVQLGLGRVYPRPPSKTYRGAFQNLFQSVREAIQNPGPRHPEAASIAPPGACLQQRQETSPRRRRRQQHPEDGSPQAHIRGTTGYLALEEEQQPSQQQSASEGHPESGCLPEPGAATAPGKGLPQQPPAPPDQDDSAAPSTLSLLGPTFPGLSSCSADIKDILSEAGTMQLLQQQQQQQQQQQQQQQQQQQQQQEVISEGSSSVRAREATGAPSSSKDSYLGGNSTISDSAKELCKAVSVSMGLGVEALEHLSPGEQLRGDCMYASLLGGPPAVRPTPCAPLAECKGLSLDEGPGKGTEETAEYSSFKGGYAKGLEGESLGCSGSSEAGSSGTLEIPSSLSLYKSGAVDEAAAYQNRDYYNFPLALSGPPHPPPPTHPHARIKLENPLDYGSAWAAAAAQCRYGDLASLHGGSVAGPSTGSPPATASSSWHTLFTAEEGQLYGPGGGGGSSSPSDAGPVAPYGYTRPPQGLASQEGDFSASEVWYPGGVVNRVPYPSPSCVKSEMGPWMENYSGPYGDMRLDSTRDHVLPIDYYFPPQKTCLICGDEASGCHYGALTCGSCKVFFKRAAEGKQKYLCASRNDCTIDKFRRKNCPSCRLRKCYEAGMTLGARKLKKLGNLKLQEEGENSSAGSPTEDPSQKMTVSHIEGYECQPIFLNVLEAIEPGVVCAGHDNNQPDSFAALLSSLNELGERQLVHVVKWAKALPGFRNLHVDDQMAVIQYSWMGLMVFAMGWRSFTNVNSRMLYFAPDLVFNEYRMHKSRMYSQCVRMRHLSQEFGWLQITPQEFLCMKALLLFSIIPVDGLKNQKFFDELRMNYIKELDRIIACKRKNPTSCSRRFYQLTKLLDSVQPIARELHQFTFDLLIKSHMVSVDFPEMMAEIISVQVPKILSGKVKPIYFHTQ
# Histamine H2 receptor = Histamine H2 receptor (Homo sapiens, UniProt P25021)
# Histamine H2 receptor, sequence (P25021 whole entry): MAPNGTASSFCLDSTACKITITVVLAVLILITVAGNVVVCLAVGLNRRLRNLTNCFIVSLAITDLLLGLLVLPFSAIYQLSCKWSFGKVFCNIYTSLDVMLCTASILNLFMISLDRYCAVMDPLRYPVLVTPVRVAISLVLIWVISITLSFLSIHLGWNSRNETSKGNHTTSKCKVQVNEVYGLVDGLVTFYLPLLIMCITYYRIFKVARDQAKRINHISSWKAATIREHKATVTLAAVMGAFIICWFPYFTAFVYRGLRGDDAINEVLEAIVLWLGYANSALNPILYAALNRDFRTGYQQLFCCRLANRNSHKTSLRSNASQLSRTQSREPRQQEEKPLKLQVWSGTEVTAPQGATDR
# [3] = biological target: Beta-1 adrenergic receptor (Homo sapiens, UniProt P08588); format: functional, cell-based
# Beta-1 adrenergic receptor, sequence (P08588 whole entry): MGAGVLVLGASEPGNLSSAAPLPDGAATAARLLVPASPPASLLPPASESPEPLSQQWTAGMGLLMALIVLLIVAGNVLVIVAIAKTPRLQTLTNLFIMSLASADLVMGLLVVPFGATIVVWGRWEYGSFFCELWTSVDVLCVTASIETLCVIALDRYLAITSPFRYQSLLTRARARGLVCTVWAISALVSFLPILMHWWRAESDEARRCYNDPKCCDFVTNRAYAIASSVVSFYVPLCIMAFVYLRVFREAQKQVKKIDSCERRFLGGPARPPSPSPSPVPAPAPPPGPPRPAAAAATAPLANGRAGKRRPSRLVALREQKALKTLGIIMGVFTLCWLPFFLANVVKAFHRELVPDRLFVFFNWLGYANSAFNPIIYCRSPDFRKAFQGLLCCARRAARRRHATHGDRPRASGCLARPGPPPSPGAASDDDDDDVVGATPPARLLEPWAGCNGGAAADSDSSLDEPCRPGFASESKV
# Androgen receptor [4] = biological target: T2, Androgen receptor; format: functional
# [5] = biological target: Hydroxycarboxylic acid receptor 2 (Homo sapiens, UniProt Q8TDS4)
# Hydroxycarboxylic acid receptor 2, sequence (Q8TDS4 whole entry): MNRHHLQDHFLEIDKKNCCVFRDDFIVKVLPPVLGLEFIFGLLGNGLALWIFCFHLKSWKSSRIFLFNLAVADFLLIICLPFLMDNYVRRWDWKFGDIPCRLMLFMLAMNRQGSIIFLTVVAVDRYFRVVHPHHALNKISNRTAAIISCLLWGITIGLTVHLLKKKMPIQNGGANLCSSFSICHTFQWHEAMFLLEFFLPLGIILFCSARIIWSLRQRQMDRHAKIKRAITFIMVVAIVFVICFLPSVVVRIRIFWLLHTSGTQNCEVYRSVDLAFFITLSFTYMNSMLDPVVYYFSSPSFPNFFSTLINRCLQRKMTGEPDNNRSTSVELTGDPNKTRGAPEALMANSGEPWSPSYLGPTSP
# [6] = biological target: T3, Alpha-1A adrenergic receptor (Homo sapiens, UniProt P35348)
# T3 sequence (P35348 whole entry): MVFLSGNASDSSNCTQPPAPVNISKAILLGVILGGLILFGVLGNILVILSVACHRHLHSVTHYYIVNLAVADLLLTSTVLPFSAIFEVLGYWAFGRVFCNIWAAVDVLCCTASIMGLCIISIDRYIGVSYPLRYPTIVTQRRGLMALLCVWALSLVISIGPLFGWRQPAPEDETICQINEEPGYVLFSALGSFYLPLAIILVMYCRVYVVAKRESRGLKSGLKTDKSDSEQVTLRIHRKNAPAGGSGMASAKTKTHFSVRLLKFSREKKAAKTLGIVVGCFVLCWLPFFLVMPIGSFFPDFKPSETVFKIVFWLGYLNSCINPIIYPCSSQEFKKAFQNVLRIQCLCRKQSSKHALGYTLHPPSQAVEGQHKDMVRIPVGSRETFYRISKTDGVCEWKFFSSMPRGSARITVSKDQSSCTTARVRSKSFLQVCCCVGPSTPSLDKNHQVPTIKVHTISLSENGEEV
# Cannabinoid receptor 1 = Cannabinoid receptor 1 (Homo sapiens, UniProt P21554); format: functional
# Cannabinoid receptor 1, sequence (P21554 whole entry): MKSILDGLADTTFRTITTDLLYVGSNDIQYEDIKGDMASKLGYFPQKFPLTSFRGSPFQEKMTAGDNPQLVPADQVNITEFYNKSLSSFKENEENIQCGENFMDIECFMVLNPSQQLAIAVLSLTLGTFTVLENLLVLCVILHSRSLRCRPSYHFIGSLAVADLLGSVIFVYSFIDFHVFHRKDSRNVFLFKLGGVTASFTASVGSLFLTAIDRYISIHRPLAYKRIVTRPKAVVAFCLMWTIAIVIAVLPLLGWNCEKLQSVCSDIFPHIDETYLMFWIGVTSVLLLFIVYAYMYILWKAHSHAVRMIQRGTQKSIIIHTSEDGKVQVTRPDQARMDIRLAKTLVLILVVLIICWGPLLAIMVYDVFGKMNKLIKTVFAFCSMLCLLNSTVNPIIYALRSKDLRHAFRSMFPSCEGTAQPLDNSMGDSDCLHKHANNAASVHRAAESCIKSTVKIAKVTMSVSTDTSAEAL
# [7] = biological target: Gamma-aminobutyric acid type B receptor subunit 1 (Homo sapiens, UniProt Q9UBS5)
# Gamma-aminobutyric acid type B receptor subunit 1, sequence (Q9UBS5 whole entry): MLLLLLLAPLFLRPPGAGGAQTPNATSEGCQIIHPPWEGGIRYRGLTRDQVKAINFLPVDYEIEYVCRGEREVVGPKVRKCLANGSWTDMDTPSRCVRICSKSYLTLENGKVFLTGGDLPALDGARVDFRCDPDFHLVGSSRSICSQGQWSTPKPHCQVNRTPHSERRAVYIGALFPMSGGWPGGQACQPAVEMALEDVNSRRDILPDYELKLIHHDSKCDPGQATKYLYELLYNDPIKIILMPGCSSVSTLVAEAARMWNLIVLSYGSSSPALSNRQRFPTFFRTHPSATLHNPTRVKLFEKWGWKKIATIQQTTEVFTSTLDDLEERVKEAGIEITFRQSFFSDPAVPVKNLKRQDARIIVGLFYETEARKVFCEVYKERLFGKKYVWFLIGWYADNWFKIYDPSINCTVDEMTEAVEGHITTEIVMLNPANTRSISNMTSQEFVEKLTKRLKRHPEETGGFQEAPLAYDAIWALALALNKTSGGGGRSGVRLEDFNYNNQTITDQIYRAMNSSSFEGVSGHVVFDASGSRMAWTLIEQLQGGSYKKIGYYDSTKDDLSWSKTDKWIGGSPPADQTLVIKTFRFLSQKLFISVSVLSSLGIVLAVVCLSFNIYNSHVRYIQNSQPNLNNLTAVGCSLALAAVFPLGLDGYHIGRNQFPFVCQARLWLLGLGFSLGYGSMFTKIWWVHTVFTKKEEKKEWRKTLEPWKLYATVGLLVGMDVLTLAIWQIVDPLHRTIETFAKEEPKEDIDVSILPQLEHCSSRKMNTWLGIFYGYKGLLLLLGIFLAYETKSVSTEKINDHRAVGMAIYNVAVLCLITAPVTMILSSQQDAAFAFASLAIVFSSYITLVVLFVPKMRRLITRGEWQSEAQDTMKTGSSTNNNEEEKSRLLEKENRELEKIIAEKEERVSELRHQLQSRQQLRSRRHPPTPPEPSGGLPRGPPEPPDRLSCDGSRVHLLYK
# [8] = biological target: 5-hydroxytryptamine receptor 5A (Homo sapiens, UniProt P47898)
# 5-hydroxytryptamine receptor 5A, sequence (P47898 whole entry): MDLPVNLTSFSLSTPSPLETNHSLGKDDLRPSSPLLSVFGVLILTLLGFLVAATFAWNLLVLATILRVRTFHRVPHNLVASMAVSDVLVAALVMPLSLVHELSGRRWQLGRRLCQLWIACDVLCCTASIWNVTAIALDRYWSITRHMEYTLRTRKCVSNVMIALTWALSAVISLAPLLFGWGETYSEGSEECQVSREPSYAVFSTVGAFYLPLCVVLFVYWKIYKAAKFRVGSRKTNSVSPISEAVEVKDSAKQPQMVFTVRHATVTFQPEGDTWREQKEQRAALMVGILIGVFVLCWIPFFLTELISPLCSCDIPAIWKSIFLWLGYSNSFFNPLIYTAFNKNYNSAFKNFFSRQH
# [9] = biological target: Vascular endothelial growth factor receptor 2 (Homo sapiens, UniProt P35968); format: functional
# Also: assay procedure not described here.
# D(1A) dopamine receptor, sequence (P21728 whole entry): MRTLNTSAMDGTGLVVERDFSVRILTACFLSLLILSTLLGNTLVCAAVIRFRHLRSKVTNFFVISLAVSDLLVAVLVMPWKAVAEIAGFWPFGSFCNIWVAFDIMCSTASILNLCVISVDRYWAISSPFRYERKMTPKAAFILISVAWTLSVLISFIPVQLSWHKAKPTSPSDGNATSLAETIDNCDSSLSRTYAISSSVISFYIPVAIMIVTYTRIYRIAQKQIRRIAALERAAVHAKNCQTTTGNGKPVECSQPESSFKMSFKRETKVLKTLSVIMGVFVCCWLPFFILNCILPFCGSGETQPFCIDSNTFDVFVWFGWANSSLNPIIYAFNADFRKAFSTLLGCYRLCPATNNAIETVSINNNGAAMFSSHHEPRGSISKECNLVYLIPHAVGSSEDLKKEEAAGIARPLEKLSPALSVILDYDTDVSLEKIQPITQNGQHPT
smiles,measurement,setting,value
CC(=O)c1ccc2c(c1)N(CCCN(C)C)c1ccccc1S2 [ACEPROMAZINE],AC50,D(1A) dopamine receptor,1.4 µM
C=CCN1C[C@H](C(=O)N(CCCN(C)C)C(=O)NCC)C[C@@H]2c3cccc4[nH]cc(c34)C[C@H]21 [CABERGOLINE],AC50,D(1A) dopamine receptor,> 30 µM
NC1CCN(c2c(F)cc3c(=O)c(C(=O)O)cn(C4CC4)c3c2Cl)C1 (stereo unspecified) [CLINAFLOXACIN],AC50,[1],40 µM
CN1CCN(C2=Nc3ccccc3Sc3ccc(Cl)cc32)CC1 [CLOTHIAPINE],AC50,Histamine H1 receptor,> 30 µM
CCOc1ccc(Cc2cc([C@@H]3O[C@H](CO)[C@@H](O)[C@H](O)[C@H]3O)ccc2Cl)cc1 [DAPAGLIFLOZIN],AC50,Androgen receptor [2],> 30 µM
same,AC50,Histamine H2 receptor,> 10 µM
CN(C)CC/C=C1\c2ccccc2CSc2ccccc21 [DOTHIEPIN],AC50,[3],> 30 µM
same,AC50,Androgen receptor [4],> 30 µM
COc1ccc(C(=O)Nc2ccccc2CCC2CCCCN2C)cc1 (stereo unspecified) [ENCAINIDE],AC50,[5],> 10 µM
same,AC50,Histamine H1 receptor,> 30 µM
same,AC50,Histamine H2 receptor,16.2 µM
same,AC50,[6],> 10 µM
O=[N+]([O-])O[C@@H]1CO[C@H]2[C@@H]1OC[C@@H]2O [ISOSORBIDE MONONITRATE],AC50,[5],> 10 µM
same,AC50,Histamine H2 receptor,> 10 µM
same,AC50,[6],> 10 µM
COc1ccccc1N1CCN(CC(O)COc2cccc3ccccc23)CC1 (stereo unspecified) [NAFTOPIDIL],AC50,[3],> 30 µM
O=[N+]([O-])c1cn2c(n1)OC[C@@H](OCc1ccc(OC(F)(F)F)cc1)C2 [PRETOMANID],AC50,Cannabinoid receptor 1,> 10 µM
same,AC50,Histamine H2 receptor,> 10 µM
same,AC50,[6],> 10 µM
CCCCCNC(=N)N/N=C/c1c[nH]c2ccc(OC)cc12 [TEGASEROD],AC50,[7],> 10 µM
same,AC50,[8],0.19 µM
same,AC50,[6],0.267 µM
CCOc1ccccc1OCC1CNCCO1 (stereo unspecified) [VILOXAZINE],AC50,Androgen receptor [2],> 30 µM
same,AC50,Cannabinoid receptor 1,> 10 µM
same,AC50,[7],> 10 µM
same,AC50,Histamine H1 receptor,> 30 µM
same,AC50,Histamine H2 receptor,> 10 µM
same,AC50,[8],> 10 µM
same,AC50,[6],> 10 µM
same,AC50,[9],> 30 µM
CN(C)CCc1c[nH]c2ccc(C[C@H]3COC(=O)N3)cc12 [ZOLMITRIPTAN],AC50,Histamine H1 receptor,> 30 µM
